Test results reported in patent US11459339B2, “Biaryl derivative, preparation method thereof and pharmaceutical application thereof” (Abbisko Therapeutics Co., Ltd., priority 2018, dated 2022).

Legend:
[1] = biological target: interaction between PD-1 and PD-L1 (Homo sapiens (Human), UniProt Q9NZQ7); assay: PD1-PDL1 HTRF binding activity test (Cisbio PD-1/PD-L1 binding assay kit); conditions: read-out: PD1-PDL1 HTRF Binding Activity IC50
[2] = biological target: interaction between PD-1 and PD-L1 expressed on cell surfaces (Homo sapiens (Human), UniProt Q9NZQ7); assay: Jurkat reporter gene cellular assay (Jurkat/NF-κB-luc/PD1 cells cocultured with Raji-PD-L1 cells, OKT-3 stimulation); type: cell-based; conditions: NF-κB-luc reporter activation fold, 6 hrs; read-out: Cell Activity EC50
Sequence of interaction between PD-1 and PD-L1 expressed on cell surfaces (Q9NZQ7 19-290): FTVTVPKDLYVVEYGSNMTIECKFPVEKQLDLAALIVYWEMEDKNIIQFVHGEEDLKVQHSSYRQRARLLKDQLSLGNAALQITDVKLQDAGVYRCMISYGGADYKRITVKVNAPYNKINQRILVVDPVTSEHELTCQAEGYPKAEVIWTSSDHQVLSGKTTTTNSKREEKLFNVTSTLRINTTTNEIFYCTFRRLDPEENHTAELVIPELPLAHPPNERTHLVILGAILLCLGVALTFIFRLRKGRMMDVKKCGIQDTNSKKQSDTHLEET
In short: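 Jurkat cells stably expressing human PD-1 and NF-κB-luciferase were cocultured with Raji cells stably expressing human PD-L1 under OKT-3 stimulation, with compound present. Luminescence was read after 6 h.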

Sequence of interaction between PD-1 and PD-L1 (Q9NZQ7 19-238): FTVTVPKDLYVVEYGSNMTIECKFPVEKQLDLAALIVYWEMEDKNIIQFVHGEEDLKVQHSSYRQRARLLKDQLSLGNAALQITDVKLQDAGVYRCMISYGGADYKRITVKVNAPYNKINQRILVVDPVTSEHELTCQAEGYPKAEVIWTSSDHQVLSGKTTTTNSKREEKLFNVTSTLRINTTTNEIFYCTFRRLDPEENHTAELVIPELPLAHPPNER

| IC50 [1] | EC50 [2] | SMILES |
| --- | --- | --- |
| 3.78 nM | 241 nM | Cc1c(NC(=O)c2cc(C3CC3)c(CN3CC(O)C3)cn2)cccc1-c1cccc(NC(=O)c2cc(C3CC3)c(CN3CC(O)C3)cn2)c1C [Example 98, N,N′-(2,2′-dimethyl-[1,1′-biphenyl]-3,3′-diyl)bis(4-cyclopropyl-5-((3-hydroxyazetidin-1-yl)methyl)picolinamide)] |
| 1.43 nM | 260 nM | Cc1c(NC(=O)c2cc(C3CC3)c(CN3CC(C)(O)C3)cn2)cccc1-c1cccc(NC(=O)c2cc(C3CC3)c(CN3CC(C)(O)C3)cn2)c1C [Example 99, N,N′-(2,2′-dimethyl-[1,1′-biphenyl]-3,3′-diyl)bis(4-cyclopropyl-5-((3-hydroxy-3-methylazetidin-1-yl)methyl)picolinamide)] |
| 1.51 nM | 122 nM | Cc1c(NC(=O)c2cc(C3CC3)c(CN3CC[C@@H](O)C3)cn2)cccc1-c1cccc(NC(=O)c2cc(C3CC3)c(CN3CC[C@@H](O)C3)cn2)c1C [Example 100] |
| 1.09 nM | 267 nM | Cc1c(NC(=O)c2cc(C3CC3)c(CN3CC[C@H](O)C3)cn2)cccc1-c1cccc(NC(=O)c2cc(C3CC3)c(CN3CC[C@H](O)C3)cn2)c1C [Example 101, N,N′-(2,2′-dimethyl-[1,1′-biphenyl]-3,3′-diyl)bis(4-cyclopropyl-5-(((S)-3-hydroxypyrrolidin-1-yl)methyl)picolinamide)] |
| 3.61 nM | 194 nM | Cc1c(NC(=O)c2cc(C3CC3)c(CN3CCC(O)CC3)cn2)cccc1-c1cccc(NC(=O)c2cc(C3CC3)c(CN3CCC(O)CC3)cn2)c1C [Example 102, N,N′-(2,2′-dimethyl-[1,1′-biphenyl]-3,3′-diyl)bis(4-cyclopropyl-5-((4-hydroxypiperidin-1-yl)methyl)picolinamide)] |
| 4.11 nM | 206 nM | Cc1c(NC(=O)c2cc(C3CC3)c(CNC3CC(O)C3)cn2)cccc1-c1cccc(NC(=O)c2cc(C3CC3)c(CN[C@H]3C[C@@H](O)C3)cn2)c1C (some centres unmarked) [Example 103, N,N′-(2,2′-dimethyl-[1,1′-biphenyl]-3,3′-diyl)bis(4-cyclopropyl-5-((((1s,3s)-3-hydroxycyclobutyl)amino)methyl)picolinamide)] |
| 0.27 nM | 14.1 nM | Cc1c(NC(=O)c2cc(C3CC3)c(CN[C@H](CO)C(=O)O)cn2)cccc1-c1cccc(NC(=O)c2cc(C3CC3)c(CN[C@H](CO)C(=O)O)cn2)c1C [Example 105] |
| 22.5 nM | 1260 nM | CCOC(=O)[C@@H](CO)NCc1cnc(C(=O)Nc2cccc(-c3cccc(NC(=O)c4cc(C5CC5)c(CN[C@H](CO)C(=O)OCC)cn4)c3C)c2C)cc1C1CC1 [Example 106, diethyl 2,2′-((((((2,2′-dimethyl-[1,1′-biphenyl]-3,3′-diyl)bis(azanediyl))bis (carbonyl))bis(4-cyclopropylpyridine-6,3-diyl))bis(methylene))bis(azanediyl)) (2R,2′R)-bis(3-hydroxypropanoate)] |
| 15.2 nM | 753 nM | CCOC(=O)[C@H](CO)NCc1cnc(C(=O)Nc2cccc(-c3cccc(NC(=O)c4cc(C5CC5)c(CN[C@@H](CO)C(=O)OCC)cn4)c3C)c2C)cc1C1CC1 [Example 107, diethyl 2,2′-((((((2,2′-dimethyl-[1,1′-biphenyl]-3,3′-diyl)bis(azanediyl))bis(carbonyl))bis(4-cyclopropylpyridine-6,3-diyl))bis (methylene))bis(azanediyl))(2S,2′S)-bis (3-hydroxypropanoate)] |
| 0.84 nM | 42.3 nM | Cc1c(NC(=O)c2cc(C3CC3)c(CN[C@@H](CO)C(=O)O)cn2)cccc1-c1cccc(NC(=O)c2cc(C3CC3)c(CN[C@@H](CO)C(=O)O)cn2)c1C [Example 108, (2S,2′S)-2,2′-((((((2,2′-dimethyl-[1,1′-biphenyl]-3,3′-diyl)bis(azanediyl))bis(carbonyl))bis(4-cyclopropylpyridine-6,3-diyl))bis(methylene))bis(azanediyl)) bis(3-hydroxypropanoic acid)] |
| 375 nM | > 10000 nM | COC(=O)[C@@H]1CCCCN1Cc1cnc(C(=O)Nc2cccc(-c3cccc(NC(=O)c4cc(C5CC5)c(CN5CCCC[C@H]5C(=O)OC)cn4)c3C)c2C)cc1C1CC1 [Example 109, dimethyl 1,1′-(((((2,2′-dimethyl-[1,1′-biphenyl]-3,3′-diyl)bis(azanediyl))bis(carbonyl))bis(4-cyclopropylpyridine-6,3-diyl))bis(methylene))(2S,2′S)-bis (piperidine-2-carboxylate)] |
| 0.67 nM | 51 nM | Cc1c(NC(=O)c2cc(C3CC3)c(CN3CCCC[C@H]3C(=O)O)cn2)cccc1-c1cccc(NC(=O)c2cc(C3CC3)c(CN3CCCC[C@H]3C(=O)O)cn2)c1C [Example 110, (2S,2′S)-1,1′-(((((2,2′-dimethyl-[1,1′-biphenyl]-3,3′-diyl)bis(azanediyl))bis (carbonyl))bis(4-cyclopropylpyridine-6,3-diyl))bis(methylene))bis(piperidine-2-carboxylic acid)] |
| 79.4 nM | 5950 nM | CCOC(=O)[C@@H](NCc1cnc(C(=O)Nc2cccc(-c3cccc(NC(=O)c4cc(C5CC5)c(CN[C@H](C(=O)OCC)[C@@H](C)O)cn4)c3C)c2C)cc1C1CC1)[C@@H](C)O [Example 111, diethyl 2,2′-((((((2,2′-dimethyl-[1,1′-biphenyl]-3,3′-diyl)bis (azanediyl))bis(carbonyl))bis (4-cyclopropylpyridine-6,3-diyl))bis(methylene))bis(azanediyl)) (2S,2′S,3R,3′R)-bis(3-hydroxybutanoate)] |
| 1.02 nM | 34.6 nM | Cc1c(NC(=O)c2cc(C3CC3)c(CN[C@H](C(=O)O)[C@@H](C)O)cn2)cccc1-c1cccc(NC(=O)c2cc(C3CC3)c(CN[C@H](C(=O)O)[C@@H](C)O)cn2)c1C [Example 112, (2S,2′S,3R,3′R)-2,2′-((((((2,2′-dimethyl-[1,1′-biphenyl1]-3,3′-diyl)bis(azanediyl))bis(carbonyl))bis(4-cyclopropylpyridine-6,3-diyl))bis(methylene))bis(azanediyl))bis(3-hydroxybutanoic acid)] |
| 6.77 nM | 979 nM | Cc1c(NC(=O)c2cc(C3CC3)c(CN[C@H]3CCOC3=O)cn2)cccc1-c1cccc(NC(=O)c2cc(C3CC3)c(CN[C@H]3CCOC3=O)cn2)c1C [Example 113] |
| 5.2 nM | 89 nM | Cc1c(NC(=O)c2cc(C3CC3)c(CN[C@@H](CCO)C(=O)O)cn2)cccc1-c1cccc(NC(=O)c2cc(C3CC3)c(CN[C@@H](CCO)C(=O)O)cn2)c1C [Example 114, (2S,2′S)-2,2′-((((((2,2′-dimethyl-[1,1′-biphenyl]-3,3′-diyl)bis(azanediyl))bis(carbonyl))bis (4-cyclopropylpyridine-6,3-diyl))bis (methylene))bis(azanediyl))bis(4-hydroxybutanoic acid)] |
| > 400 nM | > 10000 nM | CCOC(=O)C[C@H](NCc1cnc(C(=O)Nc2cccc(-c3cccc(NC(=O)c4cc(C5CC5)c(CN[C@@H](CC(=O)OCC)C(=O)OCC)cn4)c3C)c2C)cc1C1CC1)C(=O)OCC [Example 115, tetraethyl 2,2′-((((((2,2′-dimethyl-[1,1′-biphenyl]-3,3′-diyl)bis(azanediyl))bis(carbonyl))bis(4-cyclopropylpyridine-6,3-diyl))bis(methylene))bis(azanediyl)) (2S,2′S)-disuccinate] |
| 0.94 nM | 1340 nM | Cc1c(NC(=O)c2cc(C3CC3)c(CN[C@@H](CC(=O)O)C(=O)O)cn2)cccc1-c1cccc(NC(=O)c2cc(C3CC3)c(CN[C@@H](CC(=O)O)C(=O)O)cn2)c1C [Example 116, (2S,2′S)-2,2′-((((((2,2′-dimethyl-[1,1′-biphenyl]-3,3′-diyl)bis(azanediyl))bis(carbonyl))bis(4-cyclopropylpyridine-6,3-diyl))bis(methylene))bis(azanediyl))disuccinic acid] |
| 1.17 nM | 1040 nM | Cc1c(NC(=O)c2cc(C3CC3)c(CN[C@H](CC(=O)O)C(=O)O)cn2)cccc1-c1cccc(NC(=O)c2cc(C3CC3)c(CN[C@H](CC(=O)O)C(=O)O)cn2)c1C [Example 118, (2R,2′R)-2,2′-((((((2,2′-dimethyl-[1,1′-biphenyl]-3,3′-diyl)bis(azanediyl))bis(carbonyl))bis (4-cyclopropylpyridine-6,3-diyl))bis (methylene))bis(azanediyl))disuccinic acid] |
| > 400 nM | > 10000 nM | CCOC(=O)C(NCc1cnc(C(=O)Nc2cccc(-c3cccc(NC(=O)c4cc(C5CC5)c(CNC(C(=O)OCC)C(=O)OCC)cn4)c3C)c2C)cc1C1CC1)C(=O)OCC [Example 119, tetraethyl 2,2′-((((((2,2′-dimethyl-[1,1′-biphenyl]-3,3′-diyl)bis(azanediyl))bis(carbonyl))bis(4-cyclopropylpyridine-6,3-diyl))bis(methylene))bis(azanediyl))dimalonate] |
| 1.43 nM | 1760 nM | Cc1c(NC(=O)c2cc(C3CC3)c(CNC(C(=O)O)C(=O)O)cn2)cccc1-c1cccc(NC(=O)c2cc(C3CC3)c(CNC(C(=O)O)C(=O)O)cn2)c1C [Example 120, 2,2′-((((((2,2′-dimethyl-[1,1′-biphenyl]-3,3′-diyl)bis(azanediyl))bis(carbonyl))bis (4-cyclopropylpyridine-6,3-diyl))bis (methylene))bis(azanediyl))dimalonic acid] |

| SMILES | IC50 [1] | EC50 [2] |
| --- | --- | --- |
| CCOC(=O)C[C@@H](NCc1cnc(C(=O)Nc2cccc(-c3cccc(NC(=O)c4cc(C5CC5)c(CN[C@H](CC(=O)OCC)C(=O)OCC)cn4)c3C)c2C)cc1C1CC1)C(=O)OCC [Example 117, tetraethyl 2,2′-((((((2,2′-dimethyl-[1,1′-biphenyl]-3,3′-diyl)bis(azanediyl))bis(carbonyl))bis (4-cyclopropylpyridine-6,3-diyl))bis (methylene))bis(azanediyl))(2R,2′R)-disuccinate] | > 400 nM | > 10000 nM |
